Among the data in PubChem BioAssay (NCI) are TGI and GI50 values, retold here.

Among the test systems are RXF 393 renal; SF-268 CNS; SF-295 CNS; MDA-MB-231 breast; SK-MEL-2 melanoma; A498 renal; M14 melanoma; SK-MEL-28 melanoma; BT-549 breast; HT29 colon.
Test in all cases: NCI-60 cell line screen, 48 h

Values joined by “and” are separate entries in the source; they are usually repeats but may differ in a detail not shown here. Identical values can stand only once.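 96-well plates; 48 h exposure; 5 concentrations. Endpoints by linear interpolation between flanking doses. Not reached: highest tested concentration assigned. GI50 = concentration required for 50% inhibition of growth. TGI: total growth inhibition.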

For the compound `CN(Cc1cnc2nc(N)nc(N)c2n1)c1ccc(C(=O)N[C@@H](CCS(=O)(=O)O)C(=O)O)cc1`, the TGI in the test with RXF 393 renal was 1.44 µM; in the test with SF-268 CNS it was over 100 µM; in the test with SF-295 CNS, over 100 µM; in the test on MDA-MB-231 breast, over 100 µM; in the test on SK-MEL-2 melanoma it was over 100 µM; in the test on A498 renal, over 100 µM. Further, the TGI in the test on M14 melanoma, with SK-MEL-28 melanoma, with BT-549 breast and in the test with HT29 colon was over 100 µM throughout.
As to `COc1c2occc2c(N)c2ccc(=O)oc12`, the TGI in the test on RXF 393 renal, in the test with SF-268 CNS, in the test with SF-295 CNS, in the test with MDA-MB-231 breast, in the test with SK-MEL-2 melanoma and with A498 renal was over 100 µM in each case. Besides, the TGI in the test on M14 melanoma, in the test with SK-MEL-28 melanoma, with BT-549 breast and in the test on HT29 colon was over 100 µM each time.
For the compound `CSC[C@H](NC(=O)COc1cccc2cnccc12)C(=O)NC(Cc1ccccc1)C(O)C(=O)N1CSC[C@H]1C(=O)NC(C)(C)C` (some centres not stated), the TGI was 99.8 µM with RXF 393 renal; 63 µM in the test with SF-268 CNS; over 100 µM in the test with SF-295 CNS; over 100 µM in the test with MDA-MB-231 breast; over 100 µM in the test with SK-MEL-2 melanoma; over 100 µM in the test on A498 renal. In addition, the TGI in the test on M14 melanoma, with SK-MEL-28 melanoma, in the test with BT-549 breast and in the test on HT29 colon was over 100 µM throughout.
Regarding `COc1ccc2c(=O)oc3c(OC)cc(CCN(C)C)c4c(=O)oc1c2c34`, the GI50 is 18 µM and 7.95 µM with RXF 393 renal; 15 µM and 6.99 µM with SF-295 CNS; 4250 nM and 1010 nM in the test with SK-MEL-28 melanoma; 13.7 µM and 5.51 µM in the test with HT29 colon. Moreover, the TGI in the test with RXF 393 renal was 35.2 µM and 16.8 µM; with SF-268 CNS it was 28.4 µM and 16.6 µM; in the test on SF-295 CNS it was 28.5 µM and 14.3 µM; in the test on MDA-MB-231 breast, 16.1 µM; with SK-MEL-2 melanoma it was 33.1 µM and 29 µM; in the test with A498 renal, 34.8 µM and 17.6 µM. Besides, the TGI was 31.2 µM and 18.2 µM with M14 melanoma; 15.6 µM and 2.2 µM in the test with SK-MEL-28 melanoma; 15.4 µM in the test with BT-549 breast; 27 µM and 12.6 µM with HT29 colon.
On to `O=C(Nc1ncc(Cc2cccc(C(F)(F)F)c2)s1)c1ccc2c(c1)OCCO2`, for which the GI50 in the test with RXF 393 renal is 0.232 µM; with SF-268 CNS it was 1130 nM; in the test on SF-295 CNS it was 0.244 µM; in the test with MDA-MB-231 breast, 445 nM; in the test on SK-MEL-2 melanoma, 943 nM; with A498 renal it was 48.4 nM. Further, the GI50 in the test with M14 melanoma was 224 nM; with SK-MEL-28 melanoma, 1540 nM; in the test on BT-549 breast, 449 nM; with HT29 colon, 0.498 µM. Further, the TGI in the test with RXF 393 renal is 0.783 µM; in the test with SF-268 CNS, over 100 µM; with SF-295 CNS, 1.84 µM; in the test on MDA-MB-231 breast, 29.7 µM; in the test on SK-MEL-2 melanoma, over 48.6 µM; with A498 renal it was 0.442 µM. The TGI with M14 melanoma was over 48.8 µM; with SK-MEL-28 melanoma it was over 100 µM; in the test with BT-549 breast, over 100 µM; in the test on HT29 colon, over 35.2 µM.
Take `CCCCCCCCSC1=C(Cl)C(=O)C(OC)=C(OC)C1=O`: the TGI in the test with RXF 393 renal was 30.3 µM; in the test with SF-268 CNS it was 28.7 µM; in the test on SF-295 CNS it was 47.4 µM; in the test on MDA-MB-231 breast it was 29 µM; with SK-MEL-2 melanoma, 30.9 µM; in the test with A498 renal it was 27.9 µM. Further, the TGI in the test on M14 melanoma was determined as 16.9 µM; in the test on BT-549 breast, 31.4 µM; with HT29 colon, 34.8 µM.
`CC[C@]1(O)C[C@H]2CN(CCc3c([nH]c4ccccc34)C(C(=O)OC)(c3cc4c(cc3OC)N(C)[C@H]3[C@@](O)(C(=O)OC)[C@H](OC(C)=O)[C@]5(CC)[C@@H]6C[C@@H]6CN6CC[C@]43[C@@H]65)C2)C1` (some centres not stated): the GI50 in the test with SF-268 CNS is 14.5 nM; in the test on SF-295 CNS, 0.00233 µM; with MDA-MB-231 breast, 7.5 nM; with SK-MEL-2 melanoma it was under 1.43 nM; with A498 renal it was 2.75 nM; in the test on M14 melanoma, 3.65 nM. Besides, the GI50 with SK-MEL-28 melanoma is 3.05 nM; in the test on BT-549 breast, 15.6 nM; in the test on HT29 colon it was 0.00258 µM. Moreover, the TGI was found to be 10.4 µM with SF-268 CNS; 0.393 µM in the test with SF-295 CNS; 0.239 µM in the test on MDA-MB-231 breast; 0.143 µM in the test on SK-MEL-2 melanoma; 0.012 µM in the test with A498 renal; 0.254 µM with M14 melanoma. Further, the TGI was over 14.3 µM in the test with SK-MEL-28 melanoma, 0.683 µM in the test on BT-549 breast and 0.0867 µM with HT29 colon.
Consider `COc1c(C)c(OCC=C(C)C)cc(CO)c1CO`, for which the TGI in the test on RXF 393 renal was 78.2 µM; with SF-268 CNS it was over 100 µM; with SF-295 CNS it was over 100 µM; in the test on MDA-MB-231 breast it was over 100 µM; with SK-MEL-2 melanoma, over 100 µM; in the test with A498 renal it was over 100 µM. The TGI in the test with M14 melanoma, in the test with BT-549 breast and in the test on HT29 colon was over 100 µM in each case.
For the compound `O=[N+]([O-])c1cccnc1N=Nc1c(O)[nH]c2ccccc12`, the TGI in the test on SF-268 CNS was over 100 µM; in the test on SF-295 CNS it was 38.7 µM; in the test with MDA-MB-231 breast, over 100 µM; with SK-MEL-2 melanoma it was 53.4 µM; in the test with A498 renal it was over 100 µM; in the test on M14 melanoma it was 58.1 µM. The TGI in the test with SK-MEL-28 melanoma is 74.4 µM; in the test on BT-549 breast, 25.4 µM; in the test with HT29 colon, 26 µM.
On to `COc1ccc(-c2c(C#N)c(N3CCOCC3)nc3[nH]c(=S)[nH]c(=S)c23)cc1OC`, for which the GI50 is 62.6 µM in the test on RXF 393 renal; 31600 nM with SF-268 CNS; 40.1 µM with SF-295 CNS; 13900 nM in the test with MDA-MB-231 breast; over 100000 nM in the test with SK-MEL-2 melanoma; over 100000 nM with A498 renal. Moreover, the values for the GI50 in the test with M14 melanoma, in the test with SK-MEL-28 melanoma and in the test with BT-549 breast were 81600 nM, over 100000 nM and 32200 nM, respectively. For the same compound, the TGI with RXF 393 renal was over 100 µM; in the test on SF-268 CNS, over 100 µM; in the test with SF-295 CNS it was over 100 µM; in the test with MDA-MB-231 breast it was 77.1 µM; in the test with SK-MEL-2 melanoma, over 100 µM; in the test with A498 renal it was over 100 µM. Also, the TGI in the test on M14 melanoma, in the test on SK-MEL-28 melanoma and in the test on BT-549 breast was over 100 µM each time.
